# Experimental data from article PMC8850458, “The AUTOTAC chemical biology platform for targeted protein degradation via the autophagy-lysosome system” (Nature Communications, 2022).
# Several values for one entry are separate records, joined by “and”; a condition that tells them apart may be missing. Equal entries are not always repeated.
# Legend:
# [1] = molecular target: T1, tau oligomers (htauP301L-BiFC bodies) and phosphorylated tau-BiFC (Homo sapiens, UniProt P10636, P618L); assay: Immunohistochemistry of BiFC and AT8 fluorescence in brains of hTauP301L-BiFC mice; format: in vivo; details: for Sudan black B AVG CA1: control 32.0843; for Sudan black B AVG Cortex: control 98.7415; for AT8 AVG CA1 / AT8 AVG % CA1 / AT8 AVG % Cortex / AT8 AVG Cortex / AT8 CA1, per animal / AT8 Cortex, per animal: Fig. 6l; for AT8 AVG CA1: control 95.3926; for AT8 AVG Cortex: control 109.457; for AT8 CA1, per animal: control AVG 95.3926; for AT8 Cortex, per animal: control AVG 109.457
# T1 construct: from tissue; host or cells: brain of 9-month-old hTauP301L-BiFC transgenic mice (C57BL/6)
# T1 sequence (P10636 1-441 isoform P10636-8 P301L): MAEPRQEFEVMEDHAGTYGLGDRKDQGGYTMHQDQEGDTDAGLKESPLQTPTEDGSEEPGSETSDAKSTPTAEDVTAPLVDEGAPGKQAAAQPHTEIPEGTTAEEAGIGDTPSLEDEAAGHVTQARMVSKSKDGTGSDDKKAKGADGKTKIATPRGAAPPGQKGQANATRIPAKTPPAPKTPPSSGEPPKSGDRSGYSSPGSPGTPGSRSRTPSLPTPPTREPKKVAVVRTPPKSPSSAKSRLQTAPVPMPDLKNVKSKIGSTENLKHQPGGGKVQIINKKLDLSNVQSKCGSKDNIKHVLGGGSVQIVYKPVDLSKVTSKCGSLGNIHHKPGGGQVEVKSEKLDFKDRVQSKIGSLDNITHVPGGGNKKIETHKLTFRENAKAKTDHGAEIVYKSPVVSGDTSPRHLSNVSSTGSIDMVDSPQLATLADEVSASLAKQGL
# [2] = molecular target: tauP301L insoluble and soluble species (Homo sapiens, UniProt P10636, P618L); assay: Triton X-100-based insoluble/soluble fractionation; format: cell-based; details: 2.5 μM 24 h, HCQ 10 μM
# Chain of tauP301L insoluble and soluble species (P10636 1-441 isoform P10636-8 P301L): as above
# Method: SH-SY5Y-tau BiFC cells were treated with PBA-1105, PBA and YTK-1105 to determine the degraded fraction of Tau. Using a cell lysis buffer (20 mM HEPES pH 7.9, 0.2 M KCl, 1 mM MgCl2, 1 mM EGTA, 1% Triton X-100, 10% glycerol, protease inhibitor and phosphatase inhibitor), the cells were collected and incubated on ice for 15 min, followed by centrifugation at 13,000 g for 10 min at 4 °C. The supernatant was collected as the soluble fraction and the pellet as the insoluble fraction. Using PBS, the insoluble fraction was washed 4 times and lysed with a SDS-detergent lysis buffer (20 mM HEPES pH 7.9, 0.2 M KCl, 1 mM MgCl2, 1 mM EGTA, 1% Triton x-100, 1% SDS, 10% glycerol, protease inhibitors and phosphatase inhibitors). 5X Laemmli sample buffer was added to the soluble and insoluble samples and boiled for 10 min at 100 °C and loaded on a SDS-PAGE gel.
# [3] = molecular target: high-molecular weight tau aggregates (Homo sapiens, UniProt P10636, P618L); assay: In vivo oligomerization (aggregation) assay in SH-SY5Y-tauP301L cells; format: cell-based; details: okadaic acid 15 nM, compound 0.1 μM, 24 h
# Chain of high-molecular weight tau aggregates (P10636 1-441 isoform P10636-8 P301L): as above
# Method: HEK293T cells were transfected with P301L-tau-EGFP plasmid using Lipofectamine 2000. HEK293T and SHYSY5Y-tau cells were treated with p62-ZZ ligands for 24 h. After incubation on ice for 30 min for supernatant collection, the cells were lysed by a cycle of freezing/thawing and centrifuged at 13,000 g for 10 min. Protein concentration was determined using the Pierce BCA Protein Assay Kit (Thermo Fisher Scientific). Non-reducing 4X LDS sample buffer was added to sample lysate, followed by boiling at 100 °C for 10 min and samples were loaded on a 3% stacking and 8% separating SDS-PAGE. Immunoblotting assays were carried out using anti-GFP antibody (Sigma) to visualize the oligomeric complexes of Tau.
# [4] = system: ERβ signaling (EGFR, p-ERK/ERK, p-Akt/Akt); assay: WB of ERβ downstream signaling in E2-stimulated LNCaP cells; format: cell-based; details: levels of EGFR
# Description: To assess the therapeutic efficacy of autophagy-targeting degraders, we compared the downstream signaling of AR and ERβ in cells treated with either AUTOTACs or their cognate TBLs. Dihydrotestosterone (DHT) and estradiol (E2) are natural agonists that respectively bind AR and ERβ and induce their dimerization and nuclear translocation, resulting in transcriptional activation of downstream proteins[27],[28]. […] Next, we examined the potency of AUTOTACs in cancer cell growth and progression.
# Adherent cells were washed with phosphate-buffered saline (PBS) and cell pellets were lysed in SDS-based sample buffer (277.8 mM Tris-HCI, pH 6.8, 4.4% LDS, 44.4% (v/v) glycerol) containing beta-mercaptoethanol. Alternatively, cell pellets or protein supernatants were lysed in 5X Laemmli sample buffer. Whole-cell lysates were separated using SDS-PAGE, and transferred onto polyvinyllidene difluoride membranes at 100 V for 2 h at 4 °C.
compound,measurement,setting,value
O=C(CCCc1ccccc1)NCCOCCOCCOCCNCc1ccc(OCc2ccccc2)c(OCc2ccccc2)c1 [PBA-1105],Sudan black B AVG CA1,"[1]; Fig. 6k, 20 mg/kg",24
same,Sudan black B AVG Cortex,"[1]; Fig. 6k, 20 mg/kg",61.9321
same,Sudan black B AVG CA1,"[1]; Fig. 6k, 50 mg/kg",34.5914
same,Sudan black B AVG Cortex,"[1]; Fig. 6k, 50 mg/kg",38.2621
same,Sudan black B AVG % CA1,"[1]; Fig. 6k, 50 mg/kg, control 100",107.814%
same,AT8 AVG CA1,[1]; 20 mg/kg,71.2628
same,AT8 AVG % CA1,"[1]; 20 mg/kg, control 100",74.7047%
same,AT8 AVG % Cortex,"[1]; 20 mg/kg, control 100",77.6283%
same,AT8 AVG Cortex,[1]; 20 mg/kg,84.9698
same,"AT8 CA1, per animal",[1]; 20 mg/kg,75.563 and 74.477 and 82.816 and 64.806 and 58.652
same,"AT8 Cortex, per animal",[1]; 20 mg/kg,72.808 and 80.823 and 112.523 and 115.092 and 43.603
same,AT8 AVG CA1,[1]; 50 mg/kg,65.5443
same,AT8 AVG % CA1,"[1]; 50 mg/kg, control 100",68.7101%
same,AT8 AVG % Cortex,"[1]; 50 mg/kg, control 100",62.2901%
same,AT8 AVG Cortex,[1]; 50 mg/kg,68.181
same,"AT8 CA1, per animal",[1]; 50 mg/kg,51.948 and 69.287 and 60.135 and 88.15 and 58.518 and 65.228
same,"AT8 Cortex, per animal",[1]; 50 mg/kg,68.316 and 68.839 and 67.094 and 66.047 and 57.905 and 80.885
same,soluble bodies of phosphorylated tau-BiFC (AT8 staining),[1]; cortex and CA1 region,marked eradication
same,total tau oligomers (BiFC) in cortex and CA1 region of hippocampus,"[1]; hTauP301L-BiFC mice, dosage-dependent",drastic reduction
same,autophagic degradation of detergent-soluble and -insoluble tauP301L,[2],promoted autophagic degradation of not only detergent-soluble but critically also -insoluble species
same,high-molecular weight tau aggregates,[3],effectively eliminated high-molecular weight tau aggregates
O[C@H](CNCCOCCOCCOc1ccc(-c2c(-c3ccccc3)nn3c(C(F)(F)F)cc(C(F)(F)F)nc23)cc1)COc1ccc(OCc2ccccc2)c(OCCCc2ccccc2)c1 [PHTPP-1304],inhibition of ERβ signaling relative to its TBL,[4],10 folds
